Experimental data published in patent US20250002533A1, “PEPTIDE AND ITS USES” (INSTYTUT MEDYCYNY DOSW[…] […].MIROSLAWA MOSS[…] AKADEMII …, priority 2021, published 2025).

Legend:
[1] = tested on: mu opioid receptor (MOR); settings: depending on the route of administration and the assay measuring analgesia; cited from earlier work
[2] = cited from earlier work
[3] = tested on: acute pain model in rats; experiment: Analgesic effect (% MPE) after subarachnoid (i.t.) administration in an acute pain model in rats; format: in vivo, rat
[4] = tested on: rats; settings: cited from earlier work
[5] = tested on: rats with induced neuropathic pain; experiment: Chronic constriction injury (CCI) neuropathic pain model, von Frey test, central (subarachnoid) administration; format: in vivo, rat
Procedure: In the next step of the study, the peptide was administered by the central (subarachnoid) route to rats with induced neuropathic pain (the model of neuropathic pain of loose ligation of the sciatic nerve according to Bennett [Bennett and Xie, 1988]) according to the method described by Yaksh & Rudy (Yaksh T. R., Rudy T. A., Physiol Behav. 17:1031-1036 (1976). In the first step, the level of pain experienced by rats with chronic pain was determined in comparison to healthy rats. The results of the test are shown in FIG. 5. The behavioral test consisted of measuring the level of allodynia on the pelvic, “sick” limb, where the time or strength of the irritating stimulus acting on the bottom of the foot were tested.
In the main test of the analgesic effect of the tested peptide, a single dose of the peptide was administered by the central route at predetermined time intervals. To that end, the compound was dissolved in physiological saline solution and administered by a Hamilton syringe to the rats on days 0, 4, 7, 14 of the experiment. Earlier studies let to establish that in our case, the effective dose of peptide for rats is 2.0 nmol/kg.
In the treatment of chronic pain, pharmacotherapy is based on repeated administration of the active substance, which is often associated with the occurrence of the tolerance and undesired side effects. Therefore, in the next step of the study, the analgesic compound was administered to the rats daily for a period of 14 days, FIG. 7.

[6] = daily i.t. administration for 14 days

SMILES: C[C@@H](NC(=O)[C@@H](N)Cc1ccc(O)cc1)C(=O)N[C@@H](Cc1ccccc1)C(=O)NCC(=O)N[C@@H](Cc1ccc(O)cc1)C(=O)N1CCC[C@H]1C(=O)N[C@@H](CO)C(N)=O [dermorphin, Dermorphin]
- potency relative to morphine [1]: 750-2200 times
- known stability in human or rat serum [2]: 170 to 190 min

SMILES: CN1CC[C@]23c4c5ccc(O)c4O[C@H]2[C@@H](O)C=C[C@H]3[C@H]1C5 [morphine, reference compound]
- equipotent dose relative to that of the peptide according to the invention ([3]; i.t.): approximately 100 times
- dose producing an effect similar to the peptide according to the invention ([3]; i.t., equipotent dose): 32.0 nmol/kg

SMILES: C[C@@H](NC(=O)[C@@H](N)Cc1ccc(O)cc1)C(=O)NCC(=O)N[C@@H](Cc1ccccc1)C(=O)NNC(=O)[C@H](Cc1ccccc1)NC(=O)CNC(=O)[C@@H](C)NC(=O)[C@@H](N)Cc1ccc(O)cc1 [biphalin]
- effect after intravenous administration relative to morphine ([4]; animals, intravenous): corresponds to doses of morphine
- activity relative to morphine after administration into the subarachnoid space ([4]; rats, intrathecal): more than one thousand times more active than morphine

SMILES: C[C@@H](NC(=O)[C@H](CO)NC(=O)[C@@H]1CCCN1C(=O)[C@H](Cc1ccc(O)cc1)NC(=O)CNC(=O)[C@H](Cc1ccccc1)NC(=O)[C@@H](C)NC(=O)[C@@H](N)Cc1ccc(O)cc1)C(=O)N[C@@H](Cc1ccccc1)C(=O)O [peptide according to the invention, H2N-Tyr-D-Ala-Gly-Phe-Gly-Tyr-Pro-Ser-D-Ala-Phe-OH]
- analgesic effect at the threshold dose ([3]; i.t., 0.004 nmol/kg): active at a low but noticeable level
- duration of analgesic effect ([3]; i.t., 0.04 nmol/kg): 30 min
- duration of analgesic effect ([3]; i.t., 0.08 nmol/kg): 60 min
- activity in 60 and 120 min ([3]; i.t., 0.08 nmol/kg and 0.4 nmol/kg, 60 and 120 min): 60-70 % MPE
- analgesic potency compared to morphine ([3]; i.t., FIGS. 1-3): definitely more potent than morphine
- duration of maximum effects ([3]; i.t., highest doses 0.08 nmol/kg and 0.4 nmol/kg): up to 30 min
- analgesic effect compared to dermorphin at the lower dose ([3]; subarachnoid, 0.04 nmol/kg, first 30 minutes): slightly higher in the first 30 minutes than for dermorphin
- analgesic effect compared to dermorphin at the higher dose ([3]; subarachnoid, 0.4 nmol/kg, first 30 minutes): equipotent for the first 30 minutes
- analgesic potency compared to dermorphin ([3]; subarachnoid, equivalent doses 0.04 and 0.4 nmol/kg): as potent as dermorphin
- value of MPE maintained for 120 minutes after administration ([3]; subarachnoid, higher dose 0.4 nmol/kg, 120 min): 40%
- development of tolerance [5, 6]: did not develop tolerance
- general condition / undesired side effects (weight loss, hyperalgesia to touch, vocalization, hair shedding) [5, 6]: in good general physical condition
- hyperalgesia after long-term administration [5, 6]: did not induce hyperalgesia
- analgesic effect, daily administration, fourteenth day ([5]; daily i.t. administration, day 14, versus control group): did not induce its analgesic effect
- analgesic effect, daily administration, days 4 and 7 ([5]; daily i.t. administration, days 4 and 7, versus untreated group): highly analgesic
- effective dose of peptide for rats ([5]; rats, CCI model, central route): 2.0 nmol/kg
- analgesic effect, single dose ([5]; single dose i.t. on days 0, 4, 7, 14, result on days 4, 7 and 14 of pain induction, 2.0 nmol/kg): highly analgesic
